Measurements reported in patent publication US20090203785A1, “METHOD AND PROCESS FOR PRODUCING YOUTHFUL-APPEARING, SMALL-PORED, AND SMOOTH SKIN” (priority 2002, published 2009).

Test system: acne vulgaris
Experiment: topical retinoic acid plus laser-induced explosion of carbon particles on the skin of a patient with acne vulgaris (FIG. 4)
Assay type: in vivo
Conditions: combination with exploding carbon particles (Q-switched laser); after first six months of treatment; one patient
Description: In the first step 40, pre-treatment is initiated with topical retinoic acid applied to the skin at least twice per week. The concentration of retinoic acid in the topical formulation is between about 0.05% to 1% preferably about 0.1%. […] In the next step 41, a solution of carbon particles in baby oil is applied to the skin. The carbon particle-oil ratio may range from about 1:1 to 1:9, preferably 1:4, i.e., about 25 percent carbon particles suspended in about 75 percent oil by weight. In the next steps 42 and 43 a laser beam is scanned over the skin treated with the carbon particle solution so as to clean substantially all of the carbon particles from the skin surface by exploding or fracturing the carbon particles. This scanning process takes from about 2 to 10 minutes to complete on the face, usually about 4 minutes, exposing the carbon particles only to 1 or 2 pulses of laser light.
The wave length of the radiation may range from about 800 nM to 1200 nM, preferably about 1064 nM. The frequency of the pulses from the laser range from about 1 to 20 per second, preferably, about 10 per second. The duration of each pulse ranges from about 0.001 to 1 microseconds, preferably about 0.1 microseconds. The fluence or exposure of the skin treated with the carbon particles ranges from about 1 to 3 J/cm^2. […]

With CC1=C(/C=C/C(C)=C/C=C/C(C)=C/C(=O)O)C(C)(C)CCC1 [retinoic acid] the “state of the epidermis / stratum corneum after treatment” value was “leaving the epidermis intact and normal, with no removal of stratum corneum”.
